Here are results for 7 molecules from patent US20090176776A1, “SMALL MOLECULE INHIBITORS OF HIV-1 CAPSID ASSEMBLY” (UNIVERSITY OF ALABAMA AT BIRMINGHAM, priority 2005, published 2009).

Where only a bound is given, the exact number is not on record here.

For series [1], the target named is T1, recombinant HIV-1 capsid protein (CA) (Human immunodeficiency virus type 1 group M subtype B, UniProt P12493).
T1 construct: recombinant HIV-1 capsid protein (CA); made in house
The series is described as follows: Turbidity based HIV-1 capsid assembly assay. Format: biochemical. The conditions noted are these: initial assembly rate by turbidity; twofold dilutions over a 128 fold range; 30 μM CA, 2.25 M NaCl. The method, then: The kinetics can be followed by monitoring the increase of turbidity using a spectrophotometer. The IC50 of the chemical compound tested is determined by titration. As the C-domain inhibits capsid assembly by forming CA-C-domain heterodimers, the effect of added C-terminal domain on the rate of assembly was evaluated by plotting the rate of assembly versus C-terminal domain concentration.
Soluble HIV-1 capsid protein can be triggered to assemble into tubes similar in diameter and morphology to intact cores by dilution into high iconic strength buffer. The kinetics of assembly can be followed by monitoring the increase in turbidity using a spectrophotometer (Lanham et al., J. Virol., 76:6900, 2002). This assembly assay was adapted to a 96-well, microplate format to allow for medium-throughput screening of compounds by measuring turbidity in a Nepeloskan Ascent plate reader (Thermo Electron Corp., UK). A DIVERSet™ library of 10,000 low molecular weight, “drug-like” compounds was purchased from ChemBridge Corp. (San Diego, Calif.). This library was selected for its potential bioavailability and application based on a pharmacophore diversity analysis. The average molecular weight of the compounds is 347 g/mol, the range being 200-596 g/mol. The compounds came plated in 96-well plates and solubilized in DMSO at 5 mgs/mL.
Turbidity based assay. A 1.5 μL aliquot of compound was diluted 90-fold into 50 mM Na2HPO4, […] buffer, pH 8 in an optically clear 96-well plate. The plate containing compounds and salt was read to check for compound solubility and to serve as a background reading for the assay. To initiate the assembly reaction, 15 μL of […] stock (in 50 mM Na2HPO4 pH 8) of recombinant HIV-1 capsid protein (CA), purified as described (Lanman et al., J. Virol., 76:6900, 2002), was added to each well of the 96-well plate using a multi-channel pipettor. […] Furthermore, the halftime of the assembly reaction is ˜5 minutes so reading the plate in thirds prevented loss of initial rate data. Therefore, CA was added to the first 4 lanes, the reactions followed for ten minutes, reading was paused, CA was then added to the next four lanes and the process repeated. Instrument settings are as follows: PMT gain of 500 V, lamp at 10V, and integration time of 60 ms. The data were exported to a custom designed Excel spreadsheet that allowed simultaneous plotting of kinetic curves.
Recombinant CA protein was purified as previously described and stored at 300 μM at −80° C. A turbidity based assembly assay, described above, was adapted to a 96-well, microplate format to allow for medium-throughput screening of compounds in a Nepheloskan Ascent plate reader (Thermo Electron Corp., UK). A 1.5 μL aliquot of compound or DMSO was diluted 90-fold into 50 mM Na2HPO4, 2.25 M NaCl buffer, pH 8 in an optically clear 96-well plate. To initiate the assembly reaction, 15 μL of the 300 μM stock (in 50 mM Na2HPO4 pH 8) of recombinant HIV-1 capsid protein (CA), was added to each well of the 96-well plate using a multi-channel pipettor.

For another series, the system named is Luc-M7 cells. The series is described as follows: Cell viability of Luc-M7 cells (Cell-Titer Glo). The format is cell-based. Further details: unit: μM. The note with it: mock-infected Luc-M7 cells, 6 days. The method, then: (§1) Anti-HIV Assays (Multiple Round). The inhibitory effects of the tested compounds on HIV-1YU2 replication were determined by the level of luciferase expression after 6 days of infection using Bright-Glo assay (Promega). An amount of 1.5×10^4 Luc-M7 (a gift from Ned Landau) cells per ml were infected with HIV-1YU2 at a multiplicity of infection (MOI) of 3. The HIV-1 infected ([…] compound) or mock-infected (0-300 μM compound) Luc-M7 cells were placed in 96-well culture plates (100 μl/well) with 100 μl of various concentrations of the compounds with 20 μg/ml DEAE Dextran in triplicate and incubated at 37° C. under 5% CO2 at 100% humidity. After 6 days, cell viability was quantified by Cell-Titer Glo assay (Promega). […] On day 5 cell viability was determined in the mock-infected cells. FIGS. 12-18 show the anti-HIV assays for the examples of chemical compounds used according to the invention. After in-vitro assay, the chemical compounds in FIGS. 12-18 were selected for screening for cell viability and toxicity. Jurkat cells assay was used as screening assay. […] After five days, GFP expression was read. Cell viability was monitored with Alamar Blue assay. Luc M7 assay was designed to measure inhibitory activity of the chemical compounds to viral replication. After infection of cells with YU2 virus, plate cells in 96-well plate in the presence of six concentration of compounds in DMSO. At day 6, the number of cells in wells were read with Cell Titer Glo kit or by counting the number of cells infected with Bright Glo kit. 293T cells assay was designed to determine the toxicity. 293T cells were transfected with NL43. After four hours, transfected cells were plated in 96-well plate in DMSO and 2 μM Indinavir. 72 hours later, viral supernatant was collected and plated on J[…].

A short description of series [2]: MTS score (Table 1; method not described). The format is cell-based. The note with it: for MTS AVG 4 (No Effect): average of the MTS scores at 10, 30 and 100 μM; for MTS 30 μM: score at nominal 30 μM; for MTS 30 μM / MTS 100 μM / MTS 10 μM: 4 = No Effect; for MTS 100 μM: score at nominal 100 μM; for MTS 10 μM: score at nominal 10 μM.
The next series concerns 293T cells. The series is described as follows: Toxicity in 293T cells. The format is cell-based, human. Further details: unit not given beside the values. How it is done:
(§2) Anti-HIV Assays (Single Round). The inhibitory effect of the compounds on virus production and infectivity were determined by measuring the level of p24 produced in the presence of various concentrations of compounds from HEK-293 cells transiently transfected with pNL43 and by titering the virus on TZM-b1 cells. Briefly, 2.5×10^5 HEK-293 cells/ml were transfected with pNL43 using FuGene 6. Four hours post transfection the cells were plated in 96-well plates containing 100 μl of various concentrations of compounds (0-75 μM or 0-300 μM for mock transfected cells) in triplicate. At 72-hours post transfection virus supernatant was collected and stored at −80° C. until analysis. The level of p24 produced at each compound concentration was determined relative to the level produced in the presence of the DMSO only controls using HIV-1 p24 enzyme-linked immunosorbent assay (ELISA) (Beckman-Coulter). To determine the infectivity of the virus produced TZM-b1 cells were plated at 1×10^5 cells/ml in 100 μL in 96-well plates overnight. The next day, the media was replaced with 75 μL DMEM supplemented with 1% FBS, 1× PSG and 40 μg/ml DEAE Dextran and 25 μL of viral supernatant from the HEK-293 cells was added to each well. Three hours later 100 μL of DMEM with 7% FBS was added to each well. Two days after infection the cells were lysed and the level of luciferase expression was determined using the Bright-Glo assay.
(§3) FIGS. 12-18 show the anti-HIV assays for the examples of chemical compounds used according to the invention. After in-vitro assay, the chemical compounds in FIGS. 12-18 were selected for screening for cell viability and toxicity. Jurkat cells assay was used as screening assay. In Jurkat cells assay, JLTRG-R5 cells were used as Indicator cells and MOLT4 cells as Producer cells of NL43 and BAL virus. 96 chemical compounds were plated at seven different concentration from 75 μM to 0 μM at three-fold serial dilutions in 384 well plate. After five days, GFP expression was read. Cell viability was monitored with Alamar Blue assay. Luc M7 assay was designed to measure inhibitory activity of the chemical compounds to viral replication. After infection of cells with YU2 virus, plate cells in 96-well plate in the presence of six concentration of compounds in DMSO. At day 6, the number of cells in wells were read with Cell Titer Glo kit or by counting the number of cells infected with Bright Glo kit. 293T cells assay was designed to determine the toxicity. 293T cells were transfected with NL43. After four hours, transfected cells were plated in 96-well plate in DMSO and 2 μM Indinavir. 72 hours later, viral supernatant was collected and plated on JC53BL. Luciferase expression was measure after two days and p24 analysis was conducted with 1:1000 and 1:2000 dilutions.

The test system of series [3] is HIV-1NL43. In words: Anti-HIV assay (single round), p24 production by pNL43-transfected cells (ELISA). Format: cell-based. The conditions noted are these: p24 in supernatant of NL43-transfected 293T cells, 72 hours; read-out: p24 50%. The method, then:
as §2, §3
A general note: An ELISA detects its analyte on a solid surface through an enzyme-linked reagent.

In the next series the test system is HIV-1YU2. In words: Anti-HIV assay (multiple round), luciferase expression in Luc-M7 cells. Format: cell-based. The note with it: Luc-M7 cells infected with HIV-1YU2, 6 days, Bright-Glo. How it is done: as §1
The test system of series [4] is HIV-1NL43. The series is described as follows: Anti-HIV assay (single round), infectivity of virus produced, titered on TZM-b1 cells. Format: cell-based. The note with it: virus from NL43-transfected 293T cells, 72 hours; luciferase after two days; read-out: Infectivity 50%. The method, then:
as §2, §3

As to `CCN(CC)c1ccc(C=Nc2ccc(Sc3ccc([N+](=O)[O-])cc3)cc2)cc1` [Compound 70], the IC50 in series [1] worked out at 33 µM; in the series on HIV-1NL43 [3], 67.5 µM; with HIV-1YU2 it was 1.47 µM; in the series on HIV-1NL43 [4] it was 32.9 µM. The TC50 with Luc-M7 cells came out at 92.5. Further, the “MTS AVG 4 (No Effect)” value in series [2] is 3.000. Moreover, in series [2], the “MTS 30 μM” value was found to be 4. In addition, the “MTS 100 μM” value in series [2] came out at 2. This molecule gave a TC50% with 293T cells of 135.
For the molecule `CCc1ccc(OCCCCCn2ccnc2)cc1` [Compound 58], in series [1], the IC50 is 25 µM. This molecule also returned a TC50 with Luc-M7 cells of 8.7. For the same molecule, in series [2], the “MTS AVG 4 (No Effect)” value worked out at 1.333, the “MTS 10 μM” value stood at 2, the “MTS 30 μM” value amounted to 1 and the “MTS 100 μM” value is 1. This molecule displayed a TC50% in the series on 293T cells of 5. In the series on HIV-1NL43 [3], the IC50 amounted to 1.69 µM. Moreover, in the series with HIV-1YU2, the IC50 was found to be 0.06 µM. Besides, the IC50 with HIV-1NL43 [4] came to 10 µM.
With `COc1ccc(NS(=O)(=O)c2ccc(Br)cc2)cc1OC` [Compound 14], the IC50 in series [1] turned out to be 10 µM. In addition, in series [2], the “MTS AVG 4 (No Effect)” value is given as 1.667, the “MTS 10 μM” value was 2, the “MTS 30 μM” value is recorded as 1 and the “MTS 100 μM” value is reported as 2. The TC50% in the series on 293T cells is reported as 102. The IC50 with HIV-1NL43 [3] was 62.8 µM. For the same molecule, in the series with HIV-1NL43 [4], the IC50 is > 75 µM.
As to `Cc1nc2ccccc2n1Cc1ccc(Br)cc1` [Compound 18], the IC50 in series [1] was determined as 21 µM. In addition, in series [2], the “MTS AVG 4 (No Effect)” value worked out at 1.000, the “MTS 10 μM” value came out at 1, the “MTS 30 μM” value worked out at 1 and the “MTS 100 μM” value is 1. In the series on 293T cells, this molecule had a TC50% of 9.1. Also, the IC50 with HIV-1NL43 [3] turned out to be 1.8 µM. Besides, the IC50 with HIV-1NL43 [4] worked out at 43.2 µM.
On to `O=[N+]([O-])c1c(Cl)cc(O)c2c1C1C=CCC1C(c1ccc(Br)cc1)N2` (centres unmarked) [Compound 25], for which the IC50 in series [1] is 10 µM. For the same molecule, in series [2], the “MTS AVG 4 (No Effect)” value was 1.000, the “MTS 10 μM” value is 1, the “MTS 30 μM” value is listed as 1 and the “MTS 100 μM” value amounted to 1. For the same molecule, the TC50% in the series with 293T cells is given as 174. In the series with HIV-1NL43 [3], the IC50 was determined as 10.4 µM. Further, the IC50 with HIV-1NL43 [4] came out at 17.7 µM.
On to `Cc1ccc(S(=O)(=O)NN=Cc2cc(Br)cc(Br)c2O)cc1` [Compound 73], for which the IC50 in series [1] was 15 µM. In addition, in series [2], the “MTS AVG 4 (No Effect)” value was 3.000, the “MTS 10 μM” value came to 4, the “MTS 30 μM” value is recorded as 3 and the “MTS 100 μM” value turned out to be 2. In the series with 293T cells, this molecule yielded a TC50% of 178. The IC50 in the series with HIV-1NL43 [3] turned out to be 70 µM. Also, the IC50 with HIV-1NL43 [4] came out at 32 µM.
For `O=C(O)C(S)Cc1ccc(Cl)cc1` (centres unmarked) [Compound 47], in series [1], the IC50 stood at 37 µM. Moreover, in series [2], the “MTS AVG 4 (No Effect)” value is on record as 2.000, the “MTS 10 μM” value was 4, the “MTS 30 μM” value was 1 and the “MTS 100 μM” value is 1. Moreover, in the series on 293T cells, the TC50% is recorded as 202. Moreover, the IC50 in the series with HIV-1NL43 [3] amounted to 24.6 µM. In addition, the IC50 with HIV-1NL43 [4] amounted to 34.2 µM.
